These are literature values, as cited in US20240065988A1, “COMBINED USE OF KETAMINE AND RETIGABINE (EZOGABINE) FOR THE TREATMENT OF PSYCHIATRIC DISORDERS” (Yeda Research and Development Co. Ltd., priority 2021, published 2024).

For this series, the system named is treatment-resistant patients. Particulars: single sub-anesthetic dose; cited from earlier work.

With `CNC1(c2ccccc2Cl)CCCCC1=O` (racemic) [ketamine, (R,S)-ketamine], the “duration of antidepressant response” value is recorded as “up to 7 days” and the “onset of antidepressant response” value is given as “within hours”.
